Test results published in US4677110A, “N-benzoyl-N'-pyrimidinyloxyphenyl urea compounds, and antitumorous compositions containing them” (Ishihara Sangyo Kaisha Ltd., priority 1984, dated 1987).

How the values were obtained:
p-388 leukemia cells [1] = test: Test Example 1: antitumour activity, intraperitoneal-intraperitoneal, p-388 leukemia in BDF1 mice; type: in vivo; settings: i.p., one day and four days after i.p. inoculation, 30 days observation
Procedure: (Intraperitoneal-intraperitoneal) To BDF1 mice, p-388 leukemia cells were intraperitoneally inoculated in an amount of 1×10^6 cells/mouse. A test drug was intraperitoneally administered twice, i.e. one day and four days after the inoculation. […] The ratio (%) of median survival time of test and control animals was obtained with the number of survival days of mice of the control group to which a physiological saline was administered, being evaluated as 100. The comparative drugs were dispersions obtained by adding small amounts of surfactants (e.g. Tween-80) to the comparative compounds. The drugs of the present invention were those prepared in accordance with Formulation Example 4 given hereinafter. | Note: MST^1 Ratio of median survival time of test and control animals

p-388 leukemia cells [2] = test: Test Example 2: antitumour activity, intraperitoneal-oral, p-388 leukemia in BDF1 mice; type: in vivo; settings: one day and four days after i.p. inoculation, 30 days observation
Source text: (intraperitoneal-oral) To BDF1 mice, p-388 leukemia cells were intraperitoneally inoculated in an amount of 1×10^6 cells/mouse. A test drug was orally administered twice i.e. one day and four days after the inoculation. […] The test drugs and comparative drugs were formulated in accordance with Formulation Example 4 given hereinafter. | Notes: MST^1 is as defined above.

[3] = Acute toxicity, intraperitoneal administration; settings: mouse, in vivo, ip, ddY mice, suspension with Tween-80
Procedure: (§1) To ddY mice (10 animals), a drug containing the Compound No. 1 or No. 2 of the present invention formulated in accordance with Formulation Example 4 was orally administered in an amount of the compound of 12.5 mg/kg, whereupon no mice died.
On the other hand, a similar test was conducted by intraperitoneally administering a suspension obtained by adding a small amount of a surfactant (Tween-80) to the Compound No. 3 of the present invention, to the same mice, whereby the LD50 values were from 50 to 100 mg/kg.

ddY mice = test: Acute toxicity, oral administration; type: in vivo; settings: 12.5 mg/kg oral, ddY mice (10 animals), Formulation Example 4
Procedure: as §1

[4] = Acute toxicity, oral administration; type: in vivo; settings: mouse, in vivo; oral, ddY mice, Formulation Example 4
Procedure: as §1

SMILES: O=C(NC(=O)c1ccccc1Br)Nc1ccc(Oc2ncc(I)cn2)c(Cl)c1 [Comparative Compound No. 4, N-(2-bromobenzoyl)-N'-[3-chloro-4-(5-iodo-2-pyrimidinyloxy)phenyl]urea]
- T/C (%) of MST (ratio of median survival time of test and control animals) (p-388 leukemia cells [1]; 100 mg/kg/day): 165%

SMILES: O=C(NC(=O)c1ccccc1[N+](=O)[O-])Nc1ccc(Oc2ncc(I)cn2)c(Cl)c1 [Comparative Compound No. 1, N-(2 nitrobenzoyl)-N'-[3-chloro-4-(5-iodo-2-pyrimidinyloxy)phenyl]urea]
- T/C (%) of MST (ratio of median survival time of test and control animals) (p-388 leukemia cells [2]; 400 mg/kg/day): 116%
- T/C (%) of MST (ratio of median survival time of test and control animals) (p-388 leukemia cells [2]; 800 mg/kg/day): 143%
- T/C (%) of MST (ratio of median survival time of test and control animals) (p-388 leukemia cells [2]; 1600 mg/kg/day): 186%
- T/C (%) of MST (ratio of median survival time of test and control animals) (p-388 leukemia cells [1]; 12.5 mg/kg/day): 171%
- T/C (%) of MST (ratio of median survival time of test and control animals) (p-388 leukemia cells [1]; 25 mg/kg/day): 230%

SMILES: O=C(NC(=O)c1ccccc1[N+](=O)[O-])Nc1ccc(Oc2ncc(I)cn2)c(C(F)(F)F)c1 [Compound No. 3, N-(2-nitrobenzoyl)-N'-[4-(5-iodo-2-pyrimidinyloxy)-3-trifluoromethylphenyl]urea]
- LD50 [3]: 50 to 100 mg/kg

SMILES: O=C(NC(=O)c1ccccc1[N+](=O)[O-])Nc1ccc(Oc2ncc(Cl)cn2)c(C(F)(F)F)c1 [Compound No. 2, N-(2-nitrobenzoyl)-N'-[4-(5-chloro2-pyrimidinyloxy)-3-trifluoromethylphenyl]urea]
- T/C (%) of MST (ratio of median survival time of test and control animals) (p-388 leukemia cells [2]; 6.25 mg/kg/day): 167%
- mortality (ddY mice): no mice died
- LD50 [4]: ≥ 12.5 mg/kg
- T/C (%) of MST (ratio of median survival time of test and control animals) (p-388 leukemia cells [1]; 3.125 mg/kg/day): 160%

SMILES: O=C(NC(=O)c1ccccc1[N+](=O)[O-])Nc1ccc(Oc2ncc(Br)cn2)c(C(F)(F)F)c1 [Compound No. 1, N-(N2-nitrobenzoyl)-N'-[4-(5-bromo-2-pyrimidinyloxy)-3-trifluoromethylphenyl]urea]
- T/C (%) of MST (ratio of median survival time of test and control animals) (p-388 leukemia cells [2]; 6.25 mg/kg/day): 186%
- mortality (ddY mice): no mice died
- LD50 [4]: ≥ 12.5 mg/kg
- T/C (%) of MST (ratio of median survival time of test and control animals) (p-388 leukemia cells [1]; 3.125 mg/kg/day): 153%

SMILES: O=C(NC(=O)c1ccccc1Cl)Nc1ccc(Oc2ncc(I)cn2)c(Cl)c1 [Comparative Compound No. 3, N-(2-chlorobenzoyl)-N'-[3-chloro-4-(5-iodo-2-pyrimidinyloxy)phenyl]urea]
- T/C (%) of MST (ratio of median survival time of test and control animals) (p-388 leukemia cells [1]; 100 mg/kg/day): 236.8%

SMILES: O=C(NC(=O)c1ccccc1Cl)Nc1ccc(Oc2ncc(Cl)cn2)c(Cl)c1 [Comparative Compound No. 2, N-(2-chlorobenzoyl)-N'-[3-chloro-4-(5-chloro-2-pyrimidinyloxy)phenyl]urea]
- T/C (%) of MST (ratio of median survival time of test and control animals) (p-388 leukemia cells [1]; 200 mg/kg/day): 183.9%
